From article PMC10574351, “First-Row Transition Metal Complexes Incorporating the 2-(2′-pyridyl)quinoxaline Ligand (pqx), as Potent Inflammatory Mediators: Cytotoxic Properties and Biological Activities against the Platelet-Activating Factor (PAF) and Thrombin” (Molecules, 2023) come the findings set out here.

Data set [1] relates to thrombin-induced aggregation in washed rabbit platelets (WRPs). The experiment in a line: Inhibition of thrombin-induced aggregation in washed rabbit platelets. It counts as cell-based. The following applies: for IC50: washed rabbit platelets, mean ± SD, read-out: IC50 (μM) towards Thrombin in WRPs. The method, then: The biological experiments of PAF-induced platelet aggregation as well as the evaluation of the inhibitory effect of its synthetic compounds were performed according to thoroughly described protocols. The inhibitory effect of the starting materials (pqx = 2-(2′-pyridyl)quinoxaline, CrCl3 × 3H2O, MnCl2 × 4H2O, FeCl2 × 4H2O, CoCl2 × 6H2O, NiCl2 × 6H2O, CuCl2 × 2H2O, ZnCl2) and of the coordination compounds 1–7, towards PAF and thrombin related biological activities (aggregation experiments) in washed rabbit platelets (WRPs) was carried out according to previously described protocols. Briefly, in order to obtain the washed rabbit platelets (WRPs), platelet-rich plasma was washed on Ficoll–Paque cushions and adjusted to […] platelets/mL of Tyrode’s buffer, pH 7.2. The dilution of PAF was prepared using pyrogen-free 0.15 M NaCl containing 2.5 mg/mL of crystallized bovine serum albumin, required for dispersion of PAF. The compounds under investigation were firstly dissolved in the appropriate solvent that is: DMSO for pqx (0.010 M), H2O for CrCl3 × 3H2O (0.016 M), H2O for MnCl2 × 4H2O (0.004 M), DMSO-EtOH (4/1, v/v)) for FeCl2 × 4H2O (0.014 M), H2O for CoCl2 × 6H2O (0.010 M), H2O for NiCl2 × 6H2O (0.010 M), H2O for CuCl2 × 2H2O (0.008 M), H2O for ZnCl2 (0.013 M), DMSO for 1 (0.017 M), DMSO for 2 (0.010 M0, DMSO for 3 (0.004 M), DMSO for 4 (0.002 M), DMSO for 5 (0.003 M), DMSO-EtOH-H2O (25/1/1, v/v)) for 6 (0.006 M), DMSO for 7 (0.002 M) and aliquots of these solutions were then added in solutions (2.5 mg BSA/mL) of saline.
The experiment on the inhibitory effect of each compound of interest against the washed rabbit platelets (WRPs) aggregation was carried out as per the already described method. The platelets were from male New Zealand white rabbits (about 20), individually housed in stainless steel cages in an air-conditioned room (19 ± 1 °C, 55 ± 5% humidity on a 12/12 h artificial light/dark cycle). Blood samples were drawn from the main ear artery. Microliters of PAF in a final concentration of about 10^–10 M were added to the cuvette of the aggregometer, and the height of the platelet aggregation was monitored. The platelet aggregation induced by PAF, or thrombin was measured before (considered as 0% inhibition) and after the addition of various concentrations of the examined sample, creating a linear curve of percentage inhibition (ranging from 0 to 100%) versus different concentrations of the sample. From this curve, the concentration of the sample that inhibited 50% PAF-induced aggregation was calculated, and this value was defined as IC50 (Inhibitory concentration for 50% Inhibition). Dithiothreitol-insensitive PAF choline phosphotransferase, lyso-PAF:acetyl-CoA acetyltransferase and PAF-acetylhydrolase activity assays were performed on the homogenates of rabbit leukocytes while the activity of lipoprotein-associated phospholipase A2 was assessed on plasma as previously described. The experiments were performed in a model 400 vs. aggregometer of Chrono-Log (Havertown, PA, USA) coupled to a Chrono-Log recorder at 37 °C with constant stirring at 1200 rpm. The separation of platelets was performed with centrifugations in a 3L-R Heraeus Labofuge (Hvanau, Germany), a 400R Heraeus Labofuge and an RC-5B Sorvall (Newtown, CT, USA) refrigerated super speed centrifuge. Bovine serum albumin (BSA), PAF and analytical solvents for the biological assays were purchased from Sigma. Standard active thrombin was purchased from Sigma, St. Lewis, MO, USA. The measurements were performed in duplicates for each sample concentration in three different WRP preparations, in order to ensure reproducibility. All experiments were also followed by appropriate control tests of the solvent used (saline solution of BSA, DMSO aliquots in a saline solution of BSA-2.5 mg BSA/mL saline- or just in saline), in WRPs. […]

Data set [2] concerns HeLa cells (cervical cancer cells). The experiment in a line: MTT cell viability assay, HeLa. It counts as cell-based, human. The following applies: for cytotoxic effect in HeLa: 48 h, concentrations up to 100 μΜ; for IC50: 48 h exposure, mean ± SD. As to the method: In this report, cell viability tests were conducted in HEK293T and HeLa cancer cells by means of the colorimetric 3-(4,5-dimethylthiazol-2-yl)-2,5-diphenyl tetrazolium bromide (MTT) assay after exposure for 48 h. A HeLa cancer cell line was selected since it is widely used in cytotoxicity studies. For all complexes, a 10 mM stock solution in DMSO (H2O for cisplatin) was prepared and diluted appropriately to reach the final concentration reported in the Materials and Methods. The non-cancerous HEK293T cell line was used for comparison. The IC50 values of the first-row metal complexes, the pqx ligand and cisplatin, presented herein were calculated using a dose-response model, which was obtained from sigmoidal fitting of dose-response curves.
The HEK293T cell line (immortalized human embryonic kidney cells) was obtained from the Biomedical Research Foundation Academy of Athens (BRFAA), Athens, Greece and the HeLa cell line (cervical cancer cells) was obtained from the National Centre For Scientific Research Demokritos (NCSR Demokritos), Athens, Greece.
Pqx metal complexes were diluted in stock solutions of 10 mM in dimethyl sulfoxide (DMSO). A similar concentration of cisplatin dissolved in H2O was used. HEK293T and HeLa cells were cultured in Dulbecco’s modified Eagle’s medium (DMEM) with high glucose (Biosera, Nuaille, France) supplemented with 10% fetal bovine serum at 37 °C and 5% CO2. Cells were seeded in sterile tissue culture 96-well plates (SPL Life Science, Pochon, Republic of Korea) at a density of 3000 cells per well. After 24 h, the medium was removed and replaced with fresh media containing various concentrations (0.01 μΜ, 0.1 μΜ, 1 μΜ, 10 μΜ, 25 μΜ, 40 μΜ, 55 μΜ, 70 μΜ, 85 μΜ and 100 μΜ) of the compounds to be tested and was further incubated for 48 h at 37 °C. Dimethyl sulfoxide (DMSO) was used as a vehicle at ≤1%. To measure cytotoxicity, a culture medium containing the compounds (or DMSO) was removed, and 100 μL of 0.5 mg/mL MTT reagent (Applichem, Darmstadt, Germany) diluted in DMEM was added to the cells for 3 h at 37 °C. After 3 h incubation in identical conditions, MTT was removed and 200 μL of DMSO was added. Absorbance values of formazan were measured at 540 nm using a BioTek Synergy H1 microplate reader (Agilent, Santa Clara, CA, USA). All compounds were tested in triplicate. The results were statistically analyzed using the nonlinear regression by GraphPad PRISM (Version 9).

The term IC50 denotes the concentration that gives 50% inhibition.

As for mer-[Cr(pqx)Cl3(H2O)] [Complex 1], the IC50 in data set [1] turned out to be 54.6 ± 10.4 µM; in data set [2], 82.8 ± 3.12 µM. Further, the “cytotoxic effect in HeLa” value in data set [2] is listed as “only slightly affected”.

On to [Ni(pqx)Cl2]2 [Complex 7], for which the IC50 in data set [1] is 5.6 ± 0.34 µM. In data set [2], the “cytotoxic effect in HeLa” value is reported as “only slightly affected” and the concentration for half-maximal inhibition (IC50) came to 82.3 ± 9.49 µM.

In the case of `CS(C)=O.[Cl][Cu][Cl].c1ccc(-c2cnc3ccccc3n2)nc1` [Complex 3, [Cu(pqx)Cl2(DMSO)]], the IC50 in data set [1] was found to be 3.1 ± 0.4 µM; in data set [2] it was 27.2 ± 1.23 µM.

As to [Mn(pqx)(H2O)2Cl2]2 [Complex 5], the IC50 in data set [1] turned out to be 14 ± 2.1 µM. Moreover, the “cytotoxic effect in HeLa” value in data set [2] is on record as “practically non-cytotoxic”.

Regarding [Co(pqx)Cl2(DMF)] [Complex 2], the IC50 in data set [1] is 8.9 ± 1.3 µM. Also, in data set [2], the “cytotoxic effect in HeLa” value is on record as “only slightly affected” and the half-inhibitory concentration (IC50) was found to be 89.1 ± 7.77 µM.

With [Fe(pqx)Cl2]2 [Complex 6], the IC50 turned out to be 0.46 ± 0.03 µM in data set [1] and 70.9 ± 2.5 µM in data set [2].

On to `[Cl][Zn][Cl].c1ccc(-c2cnc3ccccc3n2)nc1` [Complex 4, [Zn(pqx)Cl2]], for which the “fold decrease of thrombin IC50 relative to the metal precursor” value in data set [1] (complex versus its metal precursor) was ~ 12 fold. Also, the IC50 in data set [1] amounted to 3.5 ± 0.3 µM; in data set [2], 77.8 ± 6.51 µM.
